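Cells were grown in 96-well plates and exposed to each compound for 48 hours at five concentrations; endpoints were interpolated linearly between bracketing concentrations, or set to the highest concentration if not reached. Here, GI50 denotes the concentration required for 50% inhibition of growth. TGI marks complete inhibition of growth.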 Where a SMILES comes first, the peptide text is derived from it. [ ]: non-standard residue; d: D form. The star is where a group is joined. ξ: configuration not given here. X37 = O=C(OCc1ccccc1)[C@@H]1CCC[C@H]1N*; Fmoc = O=C(OCC1c2ccccc2-c2ccccc21)*; ξW = NC(Cc1c[nH]c2ccccc12)C(=O)O; ξF = NC(Cc1ccccc1)C(=O)O; Boc = CC(C)(C)OC(=O)*; ξK = NCCCCC(N)C(=O)O; ξT = CC(O)C(N)C(=O)O; OBn = c1ccc(CO*)cc1; Bn = c1ccc(C*)cc1; tBu = CC(C)(C)*

Some test systems named below: HCT-116 colon; SF-295 CNS; NCI-H226 lung; UO-31 renal; OVCAR-4 ovarian; SK-MEL-5 melanoma; A498 renal; BT-549 breast; HCT-15 colon; HL-60(TB) leukemia.
Assay in all cases: inhibition of tumour cell growth, NCI panel, 48 h

In the case of `Cc1cc2nc3c(C#N)c(-c4ccccc4)/c(=C\Nc4cccc(C(F)(F)F)c4)c(=O)n3c2cc1C`, the TGI in the test on HCT-116 colon, in the test with SF-295 CNS, with NCI-H226 lung, with UO-31 renal, with OVCAR-4 ovarian and in the test with SK-MEL-5 melanoma was greater than 100 µM in each case. For the same compound, the TGI in the test with A498 renal, in the test on BT-549 breast and in the test with HCT-15 colon was greater than 100 µM throughout.
With `O=C(O)CCCN1CCCCC1`, the TGI in the test on HCT-116 colon, in the test on SF-295 CNS, in the test on NCI-H226 lung, in the test on UO-31 renal, in the test on OVCAR-4 ovarian and with SK-MEL-5 melanoma was greater than 100 µM each time. Besides, the TGI in the test on A498 renal, with BT-549 breast and in the test on HCT-15 colon was greater than 100 µM in each case.
Regarding `CC(C)CC(NC(=O)C(Cc1ccccc1)NC(=O)C(COCc1ccccc1)NC(=O)OC(C)(C)C)C(=O)OCc1ccccc1` (stereo not drawn) (Boc-Ser(Bn)-Phe-Leu-OBn; configuration not given here), the TGI in the test on HCT-116 colon was 32.9 µM; in the test on SF-295 CNS it was 51.1 µM; in the test with UO-31 renal, greater than 100 µM; with HL-60(TB) leukemia, 15.3 µM; in the test with OVCAR-4 ovarian it was greater than 100 µM; in the test on A498 renal, greater than 100 µM. The same compound returned a TGI in the test with HCT-15 colon of 76 µM.
As for `CC(=O)c1ccc2c(c1)CC1(C2)Cc2cc3c(cc2C1)C(=O)CC3` (configuration not stated), the TGI in the test with HCT-116 colon is 8.8 µM; in the test on SF-295 CNS it was 13 µM; in the test on NCI-H226 lung it was 2.33 µM; with UO-31 renal it was 66.9 µM; with HL-60(TB) leukemia, 2.1 µM; with OVCAR-4 ovarian it was greater than 73.6 µM. The TGI was determined as 11.9 µM with SK-MEL-5 melanoma, 4.22 µM in the test with A498 renal and 13.2 µM in the test with HCT-15 colon.
Turning to `Cc1[nH]n(C(=O)c2ccccc2O)c(=O)c1/C=C1\C(=O)C=Cc2ccccc21`, the TGI is greater than 45.5 µM in the test on HCT-116 colon; 26.4 µM in the test on SF-295 CNS; 8.57 µM in the test with NCI-H226 lung; 13.2 µM in the test with UO-31 renal; 4.26 µM in the test on SK-MEL-5 melanoma; 11.2 µM in the test with A498 renal. For the same compound, the TGI was 73 µM in the test on BT-549 breast and greater than 100 µM in the test with HCT-15 colon.
For `O=C(CCN1CCCC1)Nc1ccc2c(NCCCCc3ccccc3)c3ccccc3nc2c1`, the GI50 in the test with SF-295 CNS was 1.5 µM; in the test on NCI-H226 lung it was 1.15 µM; in the test with UO-31 renal it was 1.55 µM; with OVCAR-4 ovarian it was 1.12 µM; in the test with SK-MEL-5 melanoma, 1.56 µM; with A498 renal it was 1.43 µM. For the same compound, the GI50 with HCT-15 colon is 1.62 µM. Further, the TGI in the test with SF-295 CNS stood at 2.88 µM; in the test with NCI-H226 lung, 2.49 µM; in the test on UO-31 renal it was 2.92 µM; in the test on OVCAR-4 ovarian, 2.52 µM; in the test with SK-MEL-5 melanoma, 2.91 µM; in the test on A498 renal, 2.82 µM. In the test on HCT-15 colon, the TGI worked out at 3.1 µM.
In the case of `CC(OC(C)(C)C)C(NC(=O)C(CCCCNC(=O)OC(C)(C)C)NC(=O)C(Cc1c[nH]c2ccccc12)NC(=O)C(Cc1ccccc1)NC(=O)OCC1c2ccccc2-c2ccccc21)C(=O)NC(Cc1ccccc1)C(=O)N[C@@H]1CCC[C@H]1C(=O)OCc1ccccc1` (some centres not stated) (Fmoc-[ξF][ξW][ξK](Boc)[ξT](tBu)[ξF]-X37), the TGI in the test with HCT-116 colon, with SF-295 CNS, in the test on NCI-H226 lung, with UO-31 renal, in the test with HL-60(TB) leukemia and in the test on OVCAR-4 ovarian was greater than 100 µM throughout. The TGI in the test with SK-MEL-5 melanoma and in the test with HCT-15 colon was greater than 100 µM throughout.
For the compound `COC(=O)C1Cc2c([nH]c3ccccc23)-c2[nH]c3ccccc3c2CC(NC(C)=O)C(=O)NCC(=O)N1` (configuration not stated), the TGI in the test on HCT-116 colon, with SF-295 CNS, in the test on NCI-H226 lung, in the test with UO-31 renal, in the test with OVCAR-4 ovarian and in the test with SK-MEL-5 melanoma was greater than 100 µM each time. Moreover, the TGI in the test with HCT-15 colon is greater than 100 µM.
Turning to `CC1(C)COC(c2cccc(C3=NC(C)(C)CO3)c2)=N1`, the TGI with HCT-116 colon, in the test on NCI-H226 lung, in the test with UO-31 renal, in the test with OVCAR-4 ovarian, with SK-MEL-5 melanoma and in the test on BT-549 breast was greater than 100 µM each time. In the test on HCT-15 colon, this compound gave a TGI greater than 100 µM.
As for `CCOC(=O)/C(O)=C(\C=N\C(=S)Nc1ccc(Cl)c(Cl)c1)C(=O)OCC`, the TGI was greater than 100 µM in the test on HCT-116 colon; greater than 100 µM in the test on SF-295 CNS; greater than 100 µM in the test with NCI-H226 lung; greater than 100 µM with UO-31 renal; 59.7 µM with HL-60(TB) leukemia; greater than 100 µM with OVCAR-4 ovarian. The TGI in the test with SK-MEL-5 melanoma and with HCT-15 colon was greater than 100 µM in each case.
In the case of `CCCCc1cc2c(cc1O)CCC1C2CC[C@@]2(C)C1CC[C@@H]2O` (some centres not stated), the TGI with HCT-116 colon came to 36.6 µM; in the test with SF-295 CNS it was 35.8 µM; with NCI-H226 lung, 40.6 µM; in the test with UO-31 renal, 38 µM; in the test with OVCAR-4 ovarian it was 37.3 µM; with SK-MEL-5 melanoma, 39.2 µM. The TGI with A498 renal was 57.2 µM; in the test on HCT-15 colon it was greater than 100 µM.
Turning to `OC(Cn1cncn1)(Cn1cncn1)c1ccc(Cl)cc1Cl`, the TGI in the test on HCT-116 colon, with SF-295 CNS, in the test on NCI-H226 lung, in the test with UO-31 renal, with HL-60(TB) leukemia and with OVCAR-4 ovarian was greater than 100 µM throughout. For the same compound, the TGI in the test with SK-MEL-5 melanoma, with A498 renal and in the test on HCT-15 colon was greater than 100 µM in each case.
In the case of `CC1(c2cccc(C3CCC4(C=CC3=O)OCCO4)c2)OCCO1` (configuration not stated), the TGI in the test with HCT-116 colon is 13.2 µM; in the test on SF-295 CNS, greater than 56.7 µM; with NCI-H226 lung it was 49.2 µM; in the test on UO-31 renal it was 12.7 µM; in the test with HL-60(TB) leukemia it was 20 µM; in the test on OVCAR-4 ovarian, 18.1 µM. Moreover, the TGI stood at 28 µM in the test with SK-MEL-5 melanoma, 33.5 µM with A498 renal and 14.7 µM with HCT-15 colon.
In the case of `C=C1C(=O)O[C@H]2C1C[C@@H](O)[C@@]1(C)OC1CC[C@@]1(C)O[C@H]21` (some centres not stated), the TGI with HCT-116 colon is 34.3 µM; in the test on SF-295 CNS, greater than 100 µM; in the test with UO-31 renal, 32.5 µM; with OVCAR-4 ovarian it was 30.3 µM; in the test with SK-MEL-5 melanoma, 29.6 µM; in the test on HCT-15 colon, 37.9 µM.
Consider `CCCCc1ccc(N2C(=O)c3cc(C)cnc3S2(=O)=O)cc1`, for which the TGI with HCT-116 colon, in the test on SF-295 CNS, in the test on NCI-H226 lung, in the test with UO-31 renal, in the test on HL-60(TB) leukemia and in the test on OVCAR-4 ovarian was greater than 100 µM in each case. Moreover, the TGI in the test on SK-MEL-5 melanoma and in the test with HCT-15 colon was greater than 100 µM each time.
Turning to `N#CC(C(=O)c1ccccc1F)c1nc2cc(C(F)(F)F)ccc2s1` (configuration not stated), the TGI with HCT-116 colon is 41.9 µM; in the test on SF-295 CNS, 73.4 µM; in the test with NCI-H226 lung, greater than 100 µM; in the test with OVCAR-4 ovarian, greater than 100 µM; in the test on SK-MEL-5 melanoma, 52.3 µM; in the test on A498 renal it was 45.8 µM. The TGI came out at 69.4 µM in the test on BT-549 breast and 56.7 µM with HCT-15 colon.
With `COc1cc(-c2ccc(-c3ccc(C(=N)N)s3)s2)cc(OC)c1OC`, the GI50 in the test with SF-295 CNS is 1.78 µM; with UO-31 renal, 1.74 µM; in the test on HL-60(TB) leukemia it was 2.7 µM; with OVCAR-4 ovarian, 1.82 µM; in the test with SK-MEL-5 melanoma it was 1.52 µM; with A498 renal, 2.25 µM. In addition, the GI50 in the test with HCT-15 colon was 1.91 µM. Moreover, the TGI in the test with SF-295 CNS came out at 3.39 µM; with UO-31 renal, 3.54 µM; in the test on HL-60(TB) leukemia it was 5.64 µM; with OVCAR-4 ovarian, 3.95 µM; in the test with SK-MEL-5 melanoma it was 2.88 µM; in the test with A498 renal, 5.83 µM. For the same compound, the TGI with HCT-15 colon worked out at 4.51 µM.
In the case of `N#Cc1nn(-c2ccc(Cl)cc2)c(N)c2c(=N)n3nc(-c4ccccc4)cc3nc12`, the TGI was greater than 100 µM in the test with HCT-116 colon; greater than 24.5 µM with SF-295 CNS; greater than 100 µM with NCI-H226 lung; 98.5 µM in the test on UO-31 renal; greater than 100 µM with HL-60(TB) leukemia; greater than 56.7 µM with A498 renal. Also, the TGI in the test with HCT-15 colon is greater than 100 µM. In addition, the GI50 in the test with UO-31 renal was 31.5 µM.
Turning to `CCOC(=O)Cc1csc(/N=C\c2c(O)c3ccccc3oc2=O)n1`, the TGI is greater than 100 µM in the test on HCT-116 colon; 68.2 µM in the test with SF-295 CNS; 97.8 µM in the test on NCI-H226 lung; greater than 100 µM with UO-31 renal; 7.43 µM in the test on HL-60(TB) leukemia; greater than 100 µM with OVCAR-4 ovarian. For the same compound, the TGI was 52.6 µM in the test on SK-MEL-5 melanoma and greater than 100 µM in the test with HCT-15 colon.
Take `C[Si](C)(C)C#C[I+]c1ccccc1`: the TGI with HCT-116 colon was 56.6 µM; in the test on SF-295 CNS it was greater than 100 µM; in the test on NCI-H226 lung it was greater than 100 µM; in the test on UO-31 renal, greater than 100 µM; in the test on HL-60(TB) leukemia, 61.3 µM; in the test on OVCAR-4 ovarian, greater than 100 µM. Further, the TGI is greater than 100 µM with SK-MEL-5 melanoma, greater than 100 µM with A498 renal and 56.1 µM with HCT-15 colon.
In the case of `Cc1cccc(Nc2cn(CCOc3ccccc3)c(=O)[nH]c2=O)c1`, the TGI with HCT-116 colon was greater than 100 µM; in the test with SF-295 CNS, greater than 100 µM; with UO-31 renal, greater than 100 µM; with OVCAR-4 ovarian, greater than 100 µM; in the test on SK-MEL-5 melanoma it was 70.2 µM; with A498 renal it was greater than 100 µM. Also, the TGI in the test with HCT-15 colon was greater than 100 µM.
`c1ccc(/C(=N/Nc2cnccn2)c2ncccn2)cc1`: the TGI with HCT-116 colon, with SF-295 CNS, in the test with UO-31 renal, in the test with OVCAR-4 ovarian, in the test on SK-MEL-5 melanoma and with BT-549 breast was greater than 100 µM throughout. For the same compound, the TGI in the test with HCT-15 colon was greater than 100 µM.

(Values after PubChem BioAssay (NCI).)
